Test results from PMC6804824, “Volatile composition and classification of Lilium flower aroma types and identification, polymorphisms, and alternative splicing of their monoterpene synthase genes” (Horticulture Research, 2019).
Changes are numbered by the printed parent chain.

Experiments:
Experiment in all cases: GC-MS product analysis (SPME)
Assay type in all cases: biochemical
Settings in all cases: 30 uM GPP, 10 mM MgCl2, pH 7.2, 30 C, 3 h; products (E)-beta-ocimene, alpha-pinene, limonene; results call protein purified, methods use sonicated cells
LsoTPS-1 / LrlTPS-1 = target: T1, LsoTPS-1 / LrlTPS-1 (Lilium hybrid cultivar, UniProt A0A6M2RDI7)
T1 construct: full length, 586 aa (ORF 1761 bp), plastid transit peptide intact; pTYB12 fusion vector; E. coli BL21(DE3); about 67 kDa
T1 sequence (A0A6M2RDI7 1-586): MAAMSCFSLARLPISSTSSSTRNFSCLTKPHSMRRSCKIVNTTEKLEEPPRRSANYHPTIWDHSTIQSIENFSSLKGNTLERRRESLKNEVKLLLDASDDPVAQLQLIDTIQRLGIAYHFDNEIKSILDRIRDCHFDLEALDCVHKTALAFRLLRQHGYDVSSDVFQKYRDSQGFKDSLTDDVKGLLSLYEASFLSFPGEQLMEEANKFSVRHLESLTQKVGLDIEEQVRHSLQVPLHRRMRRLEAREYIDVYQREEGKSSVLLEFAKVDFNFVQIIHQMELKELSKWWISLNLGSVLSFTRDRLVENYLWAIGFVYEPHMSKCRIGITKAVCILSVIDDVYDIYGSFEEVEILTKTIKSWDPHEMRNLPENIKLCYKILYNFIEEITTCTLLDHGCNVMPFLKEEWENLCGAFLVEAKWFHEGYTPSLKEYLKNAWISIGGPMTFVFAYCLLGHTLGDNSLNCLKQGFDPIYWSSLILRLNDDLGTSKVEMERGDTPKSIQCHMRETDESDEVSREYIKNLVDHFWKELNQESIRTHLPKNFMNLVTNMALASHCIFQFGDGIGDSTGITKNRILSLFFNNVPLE

LsoTPS-2 = target: T2, LsoTPS-2 (Lilium hybrid cultivar, UniProt A0A2H4R3S6)
T2 construct: gene TPS; full length, 590 aa (ORF 1773 bp), plastid transit peptide intact; pTYB12 fusion vector; E. coli BL21(DE3); about 68 kDa
T2 sequence (A0A2H4R3S6 1-590): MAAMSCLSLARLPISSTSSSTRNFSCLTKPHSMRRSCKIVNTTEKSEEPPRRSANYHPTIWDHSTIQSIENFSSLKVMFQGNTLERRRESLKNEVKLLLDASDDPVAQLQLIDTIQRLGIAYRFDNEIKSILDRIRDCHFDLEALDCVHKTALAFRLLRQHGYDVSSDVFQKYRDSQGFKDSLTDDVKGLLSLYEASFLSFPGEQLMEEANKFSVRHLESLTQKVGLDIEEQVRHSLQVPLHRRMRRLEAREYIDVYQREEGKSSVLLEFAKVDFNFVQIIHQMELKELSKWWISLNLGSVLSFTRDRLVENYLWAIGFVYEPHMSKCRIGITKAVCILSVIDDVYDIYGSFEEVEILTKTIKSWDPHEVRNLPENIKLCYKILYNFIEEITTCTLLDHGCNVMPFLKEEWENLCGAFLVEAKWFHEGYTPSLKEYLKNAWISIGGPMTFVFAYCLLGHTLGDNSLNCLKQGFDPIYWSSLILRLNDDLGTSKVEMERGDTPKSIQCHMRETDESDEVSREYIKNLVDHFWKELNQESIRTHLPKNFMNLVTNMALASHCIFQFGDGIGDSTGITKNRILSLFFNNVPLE

LsoTPS-3 = target: T3, LsoTPS-3 (Lilium hybrid cultivar, UniProt A0A6M2RCV8)
T3 construct: full length, 548 aa (ORF 1647 bp), plastid transit peptide intact; pTYB12 fusion vector; E. coli BL21(DE3); about 62 kDa
T3 sequence (A0A6M2RCV8 1-548): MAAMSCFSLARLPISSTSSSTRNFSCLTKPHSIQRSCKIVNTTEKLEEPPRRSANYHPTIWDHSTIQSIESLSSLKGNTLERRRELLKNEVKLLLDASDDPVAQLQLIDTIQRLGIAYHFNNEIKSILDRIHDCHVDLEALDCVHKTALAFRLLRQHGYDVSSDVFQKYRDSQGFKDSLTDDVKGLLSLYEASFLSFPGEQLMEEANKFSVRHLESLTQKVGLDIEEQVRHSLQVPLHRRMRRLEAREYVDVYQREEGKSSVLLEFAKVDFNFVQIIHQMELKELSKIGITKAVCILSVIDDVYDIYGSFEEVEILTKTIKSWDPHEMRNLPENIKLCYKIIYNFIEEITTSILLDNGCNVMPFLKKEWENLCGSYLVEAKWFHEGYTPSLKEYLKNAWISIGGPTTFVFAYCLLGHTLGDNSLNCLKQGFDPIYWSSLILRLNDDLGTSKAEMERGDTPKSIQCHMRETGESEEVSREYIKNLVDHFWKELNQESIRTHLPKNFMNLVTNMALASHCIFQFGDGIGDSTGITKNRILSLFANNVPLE

LrlTPS-3 = target: T4, LrlTPS-3 (Lilium hybrid cultivar, UniProt A0A6M2RDN4)
T4 construct: full length, 548 aa (ORF 1647 bp), plastid transit peptide intact; pTYB12 fusion vector; E. coli BL21(DE3); about 62 kDa
T4 sequence (A0A6M2RDN4 1-548): T3 sequence (A0A6M2RCV8 1-548) with L80P, H231R

CC(C)=CCC/C(C)=C/COP(=O)(O)OP(=O)(O)O [GPP]
GC-MS product analysis (SPME) (LsoTPS-1 / LrlTPS-1): all five proteins were able to convert GPP into (E)-β-ocimene, α-pinene, and limonene
GC-MS product analysis (SPME) (LsoTPS-2): all five proteins were able to convert GPP into (E)-β-ocimene, α-pinene, and limonene
GC-MS product analysis (SPME) (LsoTPS-3): all five proteins were able to convert GPP into (E)-β-ocimene, α-pinene, and limonene
GC-MS product analysis (SPME) (LrlTPS-3): all five proteins were able to convert GPP into (E)-β-ocimene, α-pinene, and limonene
